Data on one compound can be found in patent publication US4914086A, “Method for treating African human and veterinary trypanosomiases” (priority 1987, dated 1990).

Molecules are shown by their SMILES.

In experiment [1] the test system is T. b. brucei LUMP 1001. Put plainly: CNS model, T. b. brucei LUMP 1001 infection in mice (Table 5). Type of experiment: in vivo, Trypanosoma brucei brucei (in Swiss-Webster mice). The following applies: control: Berenil 40 mg/kg on day 21. An excerpt: (§1) T. b. brucei EATRO 110 isolate was maintained as described (Bacchi, C. J., H. C. Nathan, S. H. Hutner, P. P. McCann and A. Sjoerdsma; Polyamine metabolism: a potential chemotherapeutic target in trypanosomes. Science 210: 332-334, 1980). It produces an acute, rapidly fatal parasitemia which is lethal to mice 3-5 days after inoculation. Two T. B. brucei strains, TREU 667 and LUMP 1001 developed by Jennings and coworkers (Jennings, F. W., D. D. Whitelaw and G. M. Urquhart; The relationship between duration of infection with Trypanosoma brucei in mice and the efficacy of chemotherapy. Parasitology 75: 143-153, 1977/Jennings, F. W. and G. D. Gray; Relapsed parasitemia following chemotherapy of chronic T. brucei infections in mice and its relation to cerebral trypanosomes; Contr. Microbiol. Immunol. 7 147-154, 1983) were used as CNS models. Both produce infections which are refractory to Berenil® (diminazene aceturate) and develop within 21 days after inoculation. They are not usually fatal until >40 days after inoculation. LUMP 1001 causes a more virulent CNS infection than TREU 667, and is regarded as more difficult to cure (Jennings, F. W. and G. D. Gray. Relapsed parasitemia following chemotherapy of chronic T. brucei infections in mice and its relation to cerebral trypanosomes. Contr. Microbiol. Immunol. 7 147-154, 1983).
The models for […] nervous system infections used TREU 667 and LUMP 1001 strains which were stored frozen and passaged once in rats before infection of mice. Maintenance and use of these screens were as described (Clarkson, A. B. Jr., C. J. Bacchi, G. H. Mellon, H. C. Nathan, P. P. McCann and A. Sjoerdsma. Efficacy of DFMO+blemoycin in a mouse model of central nervous system African trypanosomiasis. Proc. Natl. Acad. Sci. USA. 80: 5729-5733, 1983/Clarkson, A. B. Jr., E. J. Biene, C. J. Bacchi, P. P. McCann, S. H. Hutner and A. Sjoerdsma. New drug combination for experimental late stage African trypanosomiasis: DFMO with suramin. Am. J. Trop. Med. Hyg. 33: 1073-1077, 1984/Dube, D. K., G. Mpimbaza, A. C. Allison, E. Lederer and L. Rovis. Antitrypanosomal activity of sinefungin, Am. J. Trop. Med. Hyg. 32: 31-33, 1983/Fish, W. R., J. J. Marr, R. L. Berens, D. L. Looker, D. J. Nelson, S. LaFon and A. E. Balber. Inosine analogs as chemotherapeutic agents for African trypanosomes: metabolism in trypanosomes and efficacy in tissue culture. Anti-microb. Ag. Chemother. 27: 33-36, 1985/Clazer, R. I., and L. S. Lloyd. Effects of 8-azaadenosine and formycin on cell lethality and the synthesis and methylation of nucleic acids in human colon carcinoma cells in culture. Biochem. Pharmacol. 31: 3207-3214, 1982/Bacchi, C. J., H. C. Nathan, A. B. Clarkson, Jr., E. J. Bienen, A. J. Bitonti, P. P. McCann and A. Sjoerdsma. Activity of the ornithine decarboxylase inhibitors DL-α-difluoromethylornithine and monofluormethyldehydroornithine methylester alone and in combination with suramin against Trypanosoma brucei brucei central nervous system models, Am. J. Trop. Med. Hyg. (in press)). Briefly, groups of 100-120 mice were infected and the infections allowed to develop until day 21, when the animals were separated into groups of 10 and therapy commenced. Controls were treated with Berenil (40 mg/kg) on day 21. […] Parasitemia was followed by examining tail vein blood smears once weekly. Animals which had relapsed were removed from cages.

Experiment [2] concerns T. b. brucei TREU 667. Description: CNS model, T. b. brucei TREU 667 infection in mice (Table 4). Type of experiment: in vivo, Trypanosoma brucei brucei (in Swiss-Webster mice). The following applies: control: Berenil 40 mg/kg on day 21.
Source text: as §1
The models for […] nervous system infections used TREU 667 and LUMP 1001 strains which were stored frozen and passaged once in rats before infection of mice. Maintenance and use of these screens were as described (Clarkson, A. B. Jr., C. J. Bacchi, G. H. Mellon, H. C. Nathan, P. P. McCann and A. Sjoerdsma. Efficacy of DFMO+blemoycin in a mouse model of central nervous system African trypanosomiasis. Proc. Natl. Acad. Sci. USA. 80: 5729-5733, 1983/Clarkson, A. B. Jr., E. J. Biene, C. J. Bacchi, P. P. McCann, S. H. Hutner and A. Sjoerdsma. New drug combination for experimental late stage African trypanosomiasis: DFMO with suramin. Am. J. Trop. Med. Hyg. 33: 1073-1077, 1984/Dube, D. K., G. Mpimbaza, A. C. Allison, E. Lederer and L. Rovis. Antitrypanosomal activity of sinefungin, Am. J. Trop. Med. Hyg. 32: 31-33, 1983/Fish, W. R., J. J. Marr, R. L. Berens, D. L. Looker, D. J. Nelson, S. LaFon and A. E. Balber. Inosine analogs as chemotherapeutic agents for African trypanosomes: metabolism in trypanosomes and efficacy in tissue culture. Anti-microb. Ag. Chemother. 27: 33-36, 1985/Clazer, R. I., and L. S. Lloyd. Effects of 8-azaadenosine and formycin on cell lethality and the synthesis and methylation of nucleic acids in human colon carcinoma cells in culture. Biochem. Pharmacol. 31: 3207-3214, 1982/Bacchi, C. J., H. C. Nathan, A. B. Clarkson, Jr., E. J. Bienen, A. J. Bitonti, P. P. McCann and A. Sjoerdsma. Activity of the ornithine decarboxylase inhibitors DL-α-difluoromethylornithine and monofluormethyldehydroornithine methylester alone and in combination with suramin against Trypanosoma brucei brucei central nervous system models, Am. J. Trop. Med. Hyg. (in press)). Briefly, groups of 100-120 mice were infected and the infections allowed to develop until day 21, when the animals were separated into groups of 10 and therapy commenced. Controls were treated with Berenil (40 mg/kg) on day 21. These always relapsed 40-70 days after treatment. Parasitemia was followed by examining tail vein blood smears once weekly. Animals which had relapsed were removed from cages. TREU 667 infections were followed >225 days after inoculation and LUMP 1001 were followed >280 days, as determined by the relapse pattern in previous work (Bacchi, C. J., H. C. Nathan, A. B. Clarkson, Jr., E. J. Bienen, A. J. Bitonti, P. P. McCann and A. Sjoerdsma. Activity of the ornithine decarboxylase inhibitors DL-α-difluoromethylornithine and monofluormethyldehydroornithine methylester alone and in combination with suramin against Trypanosoma brucei brucei central nervous system models. Am. J. Trop. Med. Hyg. (in press)). […]

Experiment [3] relates to T. b. brucei TREU 667. To be noted: infection developed within 21 days; cited from earlier work.
The subject of experiment [4] is T. b. brucei LUMP 1001. The following applies: infection developed within 21 days; cited from earlier work.

For the compound `N=C(N)c1ccc(N=NNc2ccc(C(=N)N)cc2)cc1` [Berenil, diminazene aceturate, reference compound], the relapse after treatment in the experiment with T. b. brucei LUMP 1001 [1] and in the experiment with T. b. brucei TREU 667 [2] was 40 to 70 days in each case. The “response of infection in words” value with T. b. brucei TREU 667 [3] and in the experiment on T. b. brucei LUMP 1001 [4] was “refractory” in each case.
